For 16 compounds, Activity results are on record in ChEMBL document CHEMBL1154398, “Synthesis and activity in enhancing long-term potentiation (LTP) of clausenamide stereoisomers” (2009).

Structures are written as SMILES.

Holding throughout (assay type): functional
The nature of experiment [1]: Nootropic activity in hippocampus assessed as increase in amplitude of population spikes for > 40 mins by long-term potentiation enhancement assay relative to control.
Experiment [2] in a line: Nootropic activity in hippocampus assessed as increase in amplitude of population spikes after 15 mins by long-term potentiation enhancement assay relative to control. More on the design: concentration or dose not given beside the values.
Experiment [3] is described as follows: Nootropic activity in hippocampus assessed as increase in amplitude of population spikes after 60 mins by long-term potentiation enhancement assay relative to control. More on the design: concentration or dose not given beside the values.
A short description of experiment [4]: Nootropic activity in hippocampus assessed as increase in amplitude of population spikes after 30 mins by long-term potentiation enhancement assay relative to control. More on the design: concentration or dose not given beside the values.

`CN1C(=O)[C@H](O)[C@@H](c2ccccc2)[C@H]1[C@@H](O)c1ccccc1`: the Activity is reported as >30% in experiment [1], 36% in experiment [2], 107.8% in experiment [3] and 47.5% in experiment [4].
For the compound `CN1C(=O)[C@@H](O)[C@H](c2ccccc2)[C@H]1[C@H](O)c1ccccc1`, the Activity in experiment [2] is -18.2%; in experiment [4], -34.5%.
Turning to `CN1C(=O)[C@H](O)[C@H](c2ccccc2)[C@@H]1[C@@H](O)c1ccccc1`, the Activity in experiment [1] is >30%; in experiment [2], 26.2%; in experiment [3], 105.4%; in experiment [4] it was 41.2%.
As for `CN1C(=O)[C@@H](O)[C@@H](c2ccccc2)[C@@H]1[C@@H](O)c1ccccc1`, the values for the Activity in experiment [2], in experiment [3] and in experiment [4] were -5.9%, -5.1% and -1.8%, respectively.
In the same order, the values of `CN1C(=O)[C@H](O)[C@H](c2ccccc2)[C@H]1[C@@H](O)c1ccccc1` are -3%, 21.7% and 10.1%.
In the same order, the values of `CN1C(=O)[C@H](O)[C@H](c2ccccc2)[C@@H]1[C@H](O)c1ccccc1` are 7.2%, 5.4% and 0.3%.
On to `CN1C(=O)[C@@H](O)[C@@H](c2ccccc2)[C@H]1[C@@H](O)c1ccccc1`, for which the Activity was 1.7% in experiment [2], 9.6% in experiment [3] and 9.7% in experiment [4].
On to `CN1C(=O)[C@H](O)[C@H](c2ccccc2)[C@H]1[C@H](O)c1ccccc1`, for which the Activity in experiment [1] is reported as >30%; in experiment [2], 35%; in experiment [3], 92.3%; in experiment [4] it was 50.9%.
`CN1C(=O)[C@@H](O)[C@H](c2ccccc2)[C@H]1[C@@H](O)c1ccccc1`: the results for the Activity in experiment [2], in experiment [3] and in experiment [4] were -9.4%, 18.2% and -8.1%, respectively.
In the same order, the values of `CN1C(=O)[C@@H](O)[C@H](c2ccccc2)[C@@H]1[C@H](O)c1ccccc1` are -2.2%, 17.3% and -8.8%.
For `CN1C(=O)[C@@H](O)[C@@H](c2ccccc2)[C@@H]1[C@H](O)c1ccccc1`, the Activity in experiment [2] is on record as -11.5%; in experiment [3], -15.4%; in experiment [4], -11.9%.
In the same order, the values of `CN1C(=O)[C@@H](O)[C@H](c2ccccc2)[C@@H]1[C@@H](O)c1ccccc1` are 31.8%, 58.1% and 38.5%.
In the same order, the values of `CN1C(=O)[C@H](O)[C@@H](c2ccccc2)[C@@H]1[C@H](O)c1ccccc1` are 4.7%, -9.4% and -5.3%.
In the same order, the values of `CN1C(=O)[C@@H](O)[C@@H](c2ccccc2)[C@H]1[C@H](O)c1ccccc1` are -12.7%, 22.5% and 2.9%.
Consider `CN1C(=O)[C@H](O)[C@@H](c2ccccc2)[C@H]1[C@H](O)c1ccccc1` [(+)CLAUSENAMIDE], for which the Activity is -9.4% in experiment [2], 6.4% in experiment [3] and 10.1% in experiment [4].
In the same order, the values of `CN1C(=O)[C@H](O)[C@@H](c2ccccc2)[C@@H]1[C@@H](O)c1ccccc1` [(+)NEOCLAUSENAMIDE] are -0.7%, -2.5% and -29.1%.
